US20240116951A1, “HETEROCYCLIC COMPOUNDS AND USES THEREOF” (Kumquat Biosciences Inc., priority 2022, published 2024)
Where two headings read alike, the source gives them in different places.

Columns and labels:
Type in all cases: binding
[1] = biological target: T1, KRAS G12S (Homo sapiens, UniProt P01116, G12S); experiment: HTRF assay of K-Ras G12S interaction with SOS1 (PPI-HTRF)
T1 construct: made in house; host or cells: E. coli, e.g. BL21 (DE3)
Description: (§1) This assay can be also used to assess a selective inhibition or reduction of signaling output of a mutant Ras protein relative to a wildtype, or relative to a different mutant Ras protein. For example, the equilibrium interaction of wildtype Kras or K-Ras mutant (e.g., wildtype or a mutant thereof including those mentioned in Example 4) with SOS1 (e.g., hSOS1) can be assessed as a proxy or an indication for a subject compound's ability to bind and inhibit Ras protein. HTRF assay detects from (i) a fluorescence resonance energy transfer (FRET) donor (e.g., antiGST-Europium) that is bound to GST-tagged K-Ras mutant to (ii) a FRET acceptor (e.g., anti-6His-XL665) bound to a His-tagged hSOS1.
(§2) The assay buffer can contain ˜5 mM HEPES pH 7.4, ˜150 mM NaCl, ˜1 mM DTT, 0.05% BSA and 0.0025% (v/v) Igepal. A Ras working solution is prepared in an assay buffer containing typically a suitable amount of the protein construct (e.g., GST-tagged K-Ras mutant) and the FRET donor (e.g., antiGST-Eu(K) from Cisbio, France). A SOS1 working solution is prepared in an assay buffer containing suitable amount of the protein construct (e.g., His-hSOS1) and the FRET acceptor (e.g., anti-6His-XL665 from Cisbio, France). A suitable amount of the protein construct will depend on the range of activity or range of IC50 values being detected or under investigation. For detecting IC50 within a range of 500 nM, the protein constructs of the same range of molarity can be utilized. […] A fixed volume of DMSO with or without test compound is transferred into a 384-well plate. Ras working solution is added to all wells of the test plate. SOS1 working solution is added to all wells except for those that are subsequently filled the inhibitor control solution. Upon incubation for about 10 minutes or longer, the fluorescence is measured with a M1000Pro plate reader (Tecan) using HTRF detection (excitation 337 nm, emission 1: 620 nm, emission 2: 665 nm). Compounds are tested in duplicates at different concentrations (for example, 10 μM, 2.5 μM, 0.63 μM, 0.16 μM, 0.04 μM, 0.01 μM test compound). The ratiometric data (i.e., emission 2 divided by emission 1) is used to calculate IC50 values against Ras using GraphPad Prism (GraphPad software). Following this general procedure, samples were tested with or without a subject compound disclosed herein including compounds exemplified in Table 1 to assess their abilities to inhibit a mutant K-Ras relative to another mutant K-Ras or wildtype K-Ras. Signaling output measured in terms of IC50 values can be obtained, a ratio of IC50 against one mutant relative to another mutant can be calculated. For instance, a selective reduction of K-Ras G12D signaling output can be evidenced by a ratio greater than one. In particular, a selective reduction of K-Ras G12D signaling relative to K-Ras WT signaling is evidenced as the ratio of IC50 (against K-Ras WT) to IC50 (against K-Ras G12D) is greater than 1.

[2] = biological target: T2, KRAS G12D (Homo sapiens, UniProt P01116, G12D); experiment: HTRF assay of K-Ras G12D interaction with SOS1 (PPI-HTRF)
T2 construct: made in house; host or cells: E. coli, e.g. BL21 (DE3)
T2 sequence (P01116 1-188 isoform P01116-2 G12D): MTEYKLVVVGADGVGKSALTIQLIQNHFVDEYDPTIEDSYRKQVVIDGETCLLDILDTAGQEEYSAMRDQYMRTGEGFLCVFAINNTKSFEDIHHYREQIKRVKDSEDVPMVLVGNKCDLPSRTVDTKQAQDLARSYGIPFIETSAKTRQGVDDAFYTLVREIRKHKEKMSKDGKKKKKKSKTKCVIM
Description: as §1, §2

[3] = biological target: T3, KRAS WT (Homo sapiens, UniProt P01116); experiment: HTRF assay of wildtype K-Ras interaction with SOS1 (PPI-HTRF)
T3 construct: made in house; host or cells: E. coli, e.g. BL21 (DE3)
T3 sequence (P01116 1-188 isoform P01116-2): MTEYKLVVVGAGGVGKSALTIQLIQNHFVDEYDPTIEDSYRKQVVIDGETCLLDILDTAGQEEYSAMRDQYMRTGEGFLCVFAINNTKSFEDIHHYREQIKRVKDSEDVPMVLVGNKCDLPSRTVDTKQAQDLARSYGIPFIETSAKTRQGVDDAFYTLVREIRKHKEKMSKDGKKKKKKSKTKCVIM
Description: as §1, §2

[4] = 5 nM KRAS G12S, read-out: PPI-HTRF-5 nM KRAS G12S
[5] = HTRF, 5 nM KRAS G12D, read-out: PPI-HTRF-5 nM KRAS G12D
[6] = HTRF, 5 nM KRAS WT, read-out: PPI-HTRF-5 nM KRAS WT

T1 sequence (P01116 1-188 isoform P01116-2 G12S): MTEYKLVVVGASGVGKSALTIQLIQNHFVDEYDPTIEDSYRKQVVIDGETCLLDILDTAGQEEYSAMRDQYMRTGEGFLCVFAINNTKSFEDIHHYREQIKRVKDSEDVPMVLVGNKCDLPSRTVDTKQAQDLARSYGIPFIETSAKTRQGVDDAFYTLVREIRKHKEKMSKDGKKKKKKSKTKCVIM

Compound	IC50 [1, 4] [µM]	IC50 [2, 5] [µM]	IC50 [3, 6] [µM]	IC50 ([1]; PPI-HTRF-5 nM KRAS G12S) [µM]	IC50 [2] [µM]	IC50 [3] [µM]
N#Cc1c(N)sc2c(F)ccc(-c3c(Cl)cc4c(N5CCC6(CCN6C(=O)Oc6ccc([N+](=O)[O-])cc6)C5)nc(OC[C@@]56CCCN5C[C@H](F)C6)nc4c3F)c12 (stereo partly drawn) [Compound 298, 4-nitrophenyl 6-(7-(2-amino-3-cyano-7-fluorobenzo[b]thiophen-4-yl)-6-chloro-8-fluoro-2-(((2R,7aS)-2-fluorotetrahydro-1H-pyrrolizin-7a(5H)-yl)methoxy)quinazolin-4-yl)-1,6-diazaspiro[3.4]octane-1-carboxylate]				< 5	< 5	< 5
N#Cc1c(N)sc2c(F)ccc(-c3c(Cl)cc4c(N5CCC6(CCN6C(=O)n6cnc(Cl)n6)C5)nc(OC[C@@]56CCCN5C[C@H](F)C6)nc4c3F)c12 (stereo partly drawn) [Compound 312, 2-amino-4-(6-chloro-4-(1-(3-chloro-1H-1,2,4-triazole-1-carbonyl)-1,6-diazaspiro[3.4]octan-6-yl)-8-fluoro-2-(((2R,7aS)-2-fluorotetrahydro-1H-pyrrolizin-7a(5H)-yl)methoxy)quinazolin-7-yl)-7-fluorobenzo[b]thiophene-3-carbonitrile]	< 5	< 5	< 5			
N#Cc1c(N)sc2c(F)ccc(-c3c(Cl)cc4c(N5CCC6(CCN6C(=O)n6cnc(C(F)F)n6)C5)nc(OC[C@@]56CCCN5C[C@H](F)C6)nc4c3F)c12 (stereo partly drawn) [Compound 215, 2-amino-4-(6-chloro-4-(1-(3-(difluoromethyl)-1H-1,2,4-triazole-1-carbonyl)-1,6-diazaspiro[3.4]octan-6-yl)-8-fluoro-2-(((2R,7aS)-2-fluorotetrahydro-1H-pyrrolizin-7a(5H)-yl)methoxy)quinazolin-7-yl)-7-fluorobenzo[b]thiophene-3-carbonitrile]	< 5	< 5	< 5			
C[C@H]1CN(C(=O)n2cncn2)[C@]12CCN(c1nc(OC[C@@]34CCCN3C[C@H](F)C4)nc3c(F)c(-c4ccc(F)c5sc(N)c(C#N)c45)c(Cl)cc13)C2 [Compound 324, 2-amino-4-(6-chloro-8-fluoro-2-(((2R,7aS)-2-fluorotetrahydro-1H-pyrrolizin-7a(5H)-yl)methoxy)-4-((3S,4R)-3-methyl-1-(1H-1,2,4-triazole-1-carbonyl)-1,6-diazaspiro[3.4]octan-6-yl)quinazolin-7-yl)-7-fluorobenzo[b]thiophene-3-carbonitrile]	< 5	< 5	< 5			
N#Cc1c(N)sc2c(F)ccc(-c3c(Cl)cc4c(N5CC6(CCN6C(=O)n6cncn6)CC5COC(F)F)nc(OC[C@@]56CCCN5C[C@H](F)C6)nc4c3F)c12 (stereo partly drawn) [Compound 326, 2-amino-4-(6-chloro-4-(7-((difluoromethoxy)methyl)-1-(1H-1,2,4-triazole-1-carbonyl)-1,6-diazaspiro[3.4]octan-6-yl)-8-fluoro-2-(((2R,7aS)-2-fluorotetrahydro-1H-pyrrolizin-7a(5H)-yl)methoxy)quinazolin-7-yl)-7-fluorobenzo[b]thiophene-3-carbonitrile]	< 5	< 5	< 5			
N#Cc1c(N)sc2c(F)ccc(-c3c(Cl)cc4c(N5CC[C@@]6(CCN6)C5)nc(OC[C@@]56CCCN5C[C@H](F)C6)nc4c3F)c12 [Compound 331, 2-amino-4-(6-chloro-8-fluoro-2-(((2R,7aS)-2-fluorotetrahydro-1H-pyrrolizin-7a(5H)-yl)methoxy)-4-((S)-1,6-diazaspiro[3.4]octan-6-yl)quinazolin-7-yl)-7-fluorobenzo[b]thiophene-3-carbonitrile]	< 5	< 5	< 5			
C#Cc1c(F)ccc2cc(O)cc(-c3ncc4c(N5CCC6(CCN6C(=O)n6cncn6)C5)nc(OC[C@@]56CCCN5C[C@H](F)C6)nc4c3F)c12 (stereo partly drawn) [Compound 270, (6-(7-(8-ethynyl-7-fluoro-3-hydroxynaphthalen-1-yl)-8-fluoro-2-(((2R,7aS)-2-fluorotetrahydro-1H-pyrrolizin-7a(5H)-yl)methoxy)pyrido[4,3-d]pyrimidin-4-yl)-1,6-diazaspiro[3.4]octan-1-yl)(1H-1,2,4-triazol-1-yl)methanone]	< 5	< 5	< 5			
C[C@H](Oc1nc(N2CCCC3(CCN3C(=O)C3CC3(F)F)C2)c2cc(Cl)c(-c3ccc(F)c4sc(N)c(C#N)c34)c(F)c2n1)[C@@H]1CCCN1C (stereo partly drawn) [Compound 223, 2-Amino-4-(6-chloro-4-(1-(2,2-difluorocyclopropane-1-carbonyl)-1,6-diazaspiro[3.5]nonan-6-yl)-8-fluoro-2-((S)-1-((S)-1-methylpyrrolidin-2-yl)ethoxy)quinazolin-7-yl)-7-fluorobenzo[b]thiophene-3-carbonitrile]	< 5	< 5	< 5			

Continued, in another order:

IC50 [1, 4] [µM]	IC50 [2, 5] [µM]	IC50 [3, 6] [µM]	Compound	IC50 ([1]; PPI-HTRF-5 nM KRAS G12S) [µM]	IC50 [2] [µM]	IC50 [3] [µM]
< 5	< 5	< 5	C[C@H](Oc1nc(N2CCCC3(CCN3)C2)c2cc(Cl)c(-c3ccc(F)c4sc(N)c(C#N)c34)c(F)c2n1)[C@@H]1CCCN1C (stereo partly drawn) [Compound 210, 2-amino-4-(6-chloro-8-fluoro-2-((S)-1-((S)-1-methylpyrrolidin-2-yl)ethoxy)-4-(1,6-diazaspiro[3.5]nonan-6-yl)quinazolin-7-yl)-7-fluorobenzo[b]thiophene-3-carbonitrile]			
< 5	< 5	< 5	N#Cc1c(N)sc2c(F)ccc(-c3c(Cl)cc4c(N5CCC6(COCCN6C(=O)C6CC6(F)F)C5)nc(OC[C@@]56CCCN5C[C@H](F)C6)nc4c3F)c12 (stereo partly drawn) [Compound 258, 2-amino-4-(6-chloro-4-(6-(2,2-difluorocyclopropane-1-carbonyl)-9-oxa-2,6-diazaspiro[4.5]decan-2-yl)-8-fluoro-2-(((2R,7aS)-2-fluorotetrahydro-1H-pyrrolizin-7a(5H)-yl)methoxy)quinazolin-7-yl)-7-fluorobenzo[b]thiophene-3-carbonitrile]			
< 5	< 5	< 5	N#Cc1c(N)sc2c(F)ccc(-c3c(Cl)cc4c(N5CCC6(CCN6C(=O)n6nccc6C#N)C5)nc(OC[C@@]56CCCN5C[C@H](F)C6)nc4c3F)c12 (stereo partly drawn) [Compound 290, 1-(6-(7-(2-amino-3-cyano-7-fluorobenzo[b]thiophen-4-yl)-6-chloro-8-fluoro-2-(((2R,7aS)-2-fluorotetrahydro-1H-pyrrolizin-7a(5H)-yl)methoxy)quinazolin-4-yl)-1,6-diazaspiro[3.4]octane-1-carbonyl)-1H-pyrazole-5-carbonitrile]			
< 5	< 5	< 5	C[C@H](Oc1nc(N2CCC3(CCN3C(=O)[C@@H]3C[C@H]3F)C2)c2cc(Cl)c(-c3ccc(F)c4sc(N)c(C#N)c34)c(F)c2n1)[C@@H]1CCCN1C (stereo partly drawn) [Compound 271, 2-amino-4-(6-chloro-8-fluoro-4-(1-((1S,2R)-2-fluorocyclopropane-1-carbonyl)-1,6-diazaspiro[3.4]octan-6-yl)-2-((S)-1-((S)-1-methylpyrrolidin-2-yl)ethoxy)quinazolin-7-yl)-7-fluorobenzo[b]thiophene-3-carbonitrile]			
< 5	< 5	< 5	N#Cc1c(N)sc2c(F)ccc(-c3c(Cl)cc4c(N5CCC6(C5)N(C(=O)C5CC5(F)F)CC6(F)F)nc(OC[C@@]56CCCN5C[C@H](F)C6)nc4c3F)c12 (stereo partly drawn) [Compound 228, 2-amino-4-(6-chloro-4-(1-(2,2-difluorocyclopropane-1-carbonyl)-3,3-difluoro-1,6-diazaspiro[3.4]octan-6-yl)-8-fluoro-2-(((2R,7aS)-2-fluorotetrahydro-1H-pyrrolizin-7a(5H)-yl)methoxy)quinazolin-7-yl)-7-fluorobenzo[b]thiophene-3-carbonitrile]			
